Literature values in patent US6406713B1 (priority 1987, dated 2002).

Tests used:
HTLV-III/LAV virus = conditions: HTLV-III/LAV infected cell cultures
histoplasmosis = conditions: mouse, in vivo

Row | Compound | protection of target cells against cytopathic effects of the virus (HTLV-III/LAV virus) | serum and tissue distributions (histoplasmosis) | toxicity versus free amphotericin B preparations (histoplasmosis)
1 | COC(=O)[C@H]1[C@@H]2C[C@@H](O[C@@H]3O[C@H](C)[C@@H](O)[C@H](N)[C@@H]3O)/C=C/C=C/C=C/C=C/C=C/C=C/C=C/[C@H](C)[C@@H](O)[C@@H](C)[C@H](C)OC(=O)C[C@H](O)C[C@H](O)CC[C@@H](O)[C@H](O)C[C@H](O)C[C@](O)(C[C@@H]1O)O2 [amphotericin B methyl ester] | protected target cells against the cytopathic effects of the virus |  | 
2 | C[C@@H]1[C@H](O)[C@@H](C)/C=C/C=C/C=C/C=C/C=C/C=C/C=C/[C@H](O[C@@H]2O[C@H](C)[C@@H](O)[C@H](N)[C@@H]2O)C[C@@H]2O[C@](O)(C[C@@H](O)C[C@@H](O)[C@H](O)CC[C@@H](O)C[C@@H](O)CC(=O)O[C@H]1C)C[C@H](O)[C@H]2C(=O)O [amphotericin B] | protected target cells against the cytopathic effects of the virus |  | 
3 | liposomal-amphotericin B |  | lower serum levels and higher liver and spleen concentrations | less toxic
